{
  "source": "patent US9867798B2",
  "about": "“Ladostigil therapy for immunomodulation” (priority 2012, dated 2018)",
  "key": {"[1]": {"test_system": "cholinesterase (mostly BuChE)", "assay": "ChE inhibition in gerbil plasma (Ellman)", "format": "in vivo, Psammomys obesus", "details": "17 mg/kg/day, three hours after the last gavage, vs same gerbil before treatment", "protocol": "Male Psammomys obesus gerbils aged 3.5-4 months were given a high-energy diet consisting of 938.5 g/Kg version of 2018SC+F Harlan Tekled Ltd., USA, supplemented with soybean oil to a final fat concentration of 6%. After one week on the diet, blood was taken for measurement of glucose and ChE activity. Half of the animals were given ladostigil (17 mg/kg/day) by gavage while the remainder received tap water by the same route. Blood was taken from the tail once weekly for measurement of glucose as described in Kalman R., et al, (2001). Lab Anim. 35:346-352. After three weeks of treatment the animals they were deeply anesthetized, blood was taken by cardiac puncture for measurement of ChE activity, glucose and insulin levels and the pancreas removed for section and staining with haematoxylin and eosin and the number of islets counted. Blood glucose of 11 animals had reached values exceeding 200 mg/dL after one week on the high energy diet and the average value for the whole group was 300±27 mg/dL. […] It is noted, that cholinesterase activity in plasma of Psammomys obesus is mostly mediated by butyrylcholinesterase (BuChE) rather than by AChE."}, "[2]": {"test_system": "LPS-induced TNF-α, IL-1β and IL-6 in spleen", "assay": "Cytokines in spleen of mice injected with LPS (Example 4)", "format": "in vivo, Balb/c mice", "protocol": "Male Balb/c mice (aged 6-7 weeks, weighing 25-30 gm) were given ladostigil 10 mg/kg by gavage or 1 ml/kg saline followed 15 min later by an intra-peritoneal (i.p.) injection of LPS (10 mg/kg). For measurement of cytokine levels in the spleen and blood the mice were sacrificed 4 h after drug administration, blood collected in heparinized tubes and centrifuged to obtain plasma and the spleen was rapidly removed and weighed. Plasma and spleen were frozen in liquid nitrogen and stored at −80° C. until use.\nFor measurement of cytokine levels the tissue was diluted in PBS containing 0.8% NaCl, 0.144% NaHPO4, 0.024% KH2PO4 and protease inhibitor cocktail (Sigma Israel, P8340) and homogenized in an Ultra-TURRAX® homogenizer at a speed of 24,000 rpm, centrifuged at 14000 g for 15 min at 4° C. Cytokines were detected in the supernatant by using ELISA kits for cytokines IL-1β, IL-6, and TNF-α(Biolegend) following the manufacturer's protocol. Each experiment was performed 4 times with 6 replicate measures in each experiment. Protein concentration in each sample was determined with Bradford reagent (Bio-RAD, 500-0006)."}, "[3]": {"test_system": "LPS-induced TNF-α, IL-1β and IL-6 in spleen", "assay": "Cytokines in spleen of mice injected with LPS, comparison to rivastigmine (Example 5)", "format": "in vivo, Balb/c mice", "details": "for IL-1β in spleen / IL-6 in spleen / TNF-α in spleen: four hours", "protocol": "Male Balb/c mice (aged 8-9 weeks, weighing 25-30 gm) were given ladostigil (10 or 20 mg/kg) or rivastigmine (0.5 or 1 mg/kg) by gavage, or water (1 ml/100 g), followed 15 min later by an intra-peritoneal injection of LPS (10 mg/kg). Control mice were given LPS and water by gavage (1 ml/100 g). For measurement of cytokine levels in the spleen and blood the mice were sacrificed 4 h after drug administration, blood collected in heparinized tubes and centrifuged to obtain plasma and the spleen was rapidly removed and weighed. Plasma and spleen were frozen in liquid nitrogen and stored at −80° C. until use. For measurement of cytokine levels, the tissue was diluted in PBS containing 0.8% NaCl, 0.144% NaHPO4, 0.024% KH2PO4 and protease inhibitor cocktail (Sigma Israel, P8340) and homogenized in an Ultra-TURRAX® homogenizer at a speed of 24,000 rpm, centrifuged at 14000 g for 15 min at 4° C. Cytokines were detected in the supernatant by using ELISA kits for cytokines IL-1β, IL-6, and TNF-α (Biolegend) following the manufacturer's protocol. Each experiment was performed twice with 8 replicate measures in each experiment. Protein concentration in each sample was determined with Bradford reagent (Bio-RAD, 500-0006)."}, "[4]": {"details": "10 mg/kg by gavage + LPS 10 mg/kg i.p., four hours"}, "[5]": {"details": "ladostigil 10 mg/kg + LPS 10 mg/kg"}, "[6]": {"details": "ladostigil 20 mg/kg + LPS 10 mg/kg"}},
  "data": [
    {"smiles": "C#CCN[C@@H]1CCc2ccc(OC(=O)N(C)CC)cc21", "note": "[Ladostigil, R(+)-6-(N-methyl, N-ethyl-carbamoyloxy)-N′-propargyl-1-aminoindan]", "values": [
      {"measurement": "ChE inhibition in plasma", "setting": "[1]", "value": "50±3", "unit": "%"},
      {"measurement": "Reduction of IL-1β levels in spleen", "setting": "[2]; 10 mg/kg + LPS, Example 4", "value": 28.1, "unit": "%"},
      {"measurement": "Reduction of IL-6 levels in spleen", "setting": "[2]; 10 mg/kg + LPS, Example 4", "value": 46.7, "unit": "%"},
      {"measurement": "Reduction of TNF-α levels in spleen", "setting": "[2]; 10 mg/kg + LPS, Example 4", "value": 49.6, "unit": "%"},
      {"measurement": "IL-1β in spleen", "setting": "[2]; [4]", "value": "1.37 ± 0.04", "unit": "ng/mg protein"},
      {"measurement": "IL-6 in spleen", "setting": "[2]; [4]", "value": "179 ± 20", "unit": "pg/mg protein"},
      {"measurement": "TNF-α in spleen", "setting": "[2]; [4]", "value": "8.3 ± 0.9", "unit": "pg/mg protein"},
      {"measurement": "Reduction of elevation of pro-inflammatory cytokines in the spleen", "setting": "[2]; oral dose prior to LPS, Example 4 conclusion", "value": "28-50%"},
      {"measurement": "Reduction of IL-1β levels in spleen", "setting": "[3]; ladostigil 10 mg/kg + LPS", "value": "31.1±4.3", "unit": "%"},
      {"measurement": "Reduction of IL-6 levels in spleen", "setting": "[3]; ladostigil 10 mg/kg + LPS", "value": "50.0±7.2", "unit": "%"},
      {"measurement": "Reduction of TNF-α levels in spleen", "setting": "[3]; ladostigil 10 mg/kg + LPS", "value": "49.7±7.6", "unit": "%"},
      {"measurement": "IL-1β in spleen", "setting": "[3]; [5]", "value": "401 ± 40", "unit": "pg/mg"},
      {"measurement": "IL-6 in spleen", "setting": "[3]; [5]", "value": "351 ± 50", "unit": "pg/mg"},
      {"measurement": "TNF-α in spleen", "setting": "[3]; [5]", "value": "9.6 ± 1.5", "unit": "pg/mg"},
      {"measurement": "Effect on TNF-α or IL-1β levels in spleen", "setting": "[3]; ladostigil 20 mg/kg + LPS", "value": "had no effect"},
      {"measurement": "Reduction of IL-6 levels in spleen", "setting": "[3]; ladostigil 20 mg/kg + LPS", "value": "42.7±8.3", "unit": "%"},
      {"measurement": "IL-1β in spleen", "setting": "[3]; [6]", "value": "591 ± 17", "unit": "pg/mg"},
      {"measurement": "IL-6 in spleen", "setting": "[3]; [6]", "value": "454 ± 59", "unit": "pg/mg"},
      {"measurement": "TNF-α in spleen", "setting": "[3]; [6]", "value": "17.1 ± 1.9", "unit": "pg/mg"}
    ]}
  ]
}
